# Results from publication PMC7926352, “Synthesis, Characterization and In Vitro Evaluation of Novel 5-Ene-thiazolo[3,2-b][1,2,4]triazole-6(5H)-ones as Possible Anticancer Agents” (Molecules, 2021).
# Where two headings read alike, the source gives them in different places.
# Tests used:
# [1] = tested on: Leukemia cell lines; conditions: for GI50 / CC50: Homo sapiens
# [2] = tested on: CNS Cancer cell lines; conditions: for GI50 / CC50: Homo sapiens
# [3] = tested on: CCRF-CEM
# [4] = tested on: HOP-62
# [5] = tested on: A498
# [6] = tested on: Breast Cancer cell lines
# [7] = tested on: COLO 205; type: cell-based; conditions: COLO 205, Colon cancer
# [8] = tested on: HCT-116
# [9] = tested on: K-562
# [10] = tested on: Colon cancer cell lines; conditions: for GI50 / CC50: Homo sapiens
# [11] = tested on: NCI-H522
# [12] = tested on: MDA-MB-435
# [13] = tested on: human embryonic kidney (HEK 293) cell lines; assay: MTT cytotoxicity assay; type: cell-based; conditions: Homo sapiens, HEK293; HEK 293, MTT, 24 h
# Method: Compounds 2h and 2i were also evaluated in vitro for their cytotoxic potential against human embryonic kidney (HEK 293) cell lines using the MTT assay.
# The cytotoxicity of compounds 2h and 2i was analyzed in vitro by the MTT colorimetric assay on human embryonic kidney cell lines (HEK 293). HEK cell lines were cultured in DMEM supplemented with 10% fetal calf serum and 1% antibiotic-antimycotic mixture culture plates at 37 °C and 5% CO2-humidified incubator. Cells were seeded at a density of 1 × 10^5 cells/well in 96-well plate for 24 h; then, cells were washed and incubated in fresh medium. Compounds 2h and 2i were added at a concentration of 1, 5, 10, 25, and 50 μg/mL to triplicate wells and kept for 24 h, after which cells were washed three times with PBS. After washing, 20 μL of MTT solution (5 mg/mL stock solution) were added to each well, and cells were then incubated for an additional 4 h. The unreacted MTT dye and medium were aspirated off, and 100 μL of DMSO was added to each well to ensure solubilization of formazan crystals. The contents of the plates were mixed for 15 min to achieve complete solubilization of the formazan crystals, and the measurement of optical density was carried out at 570 nm with a micro plate spectrophotometer (MRX Microplate Reader, Dynatech Laboratories Inc., Chantilly, VA, USA) at 570 nm.
# [14] = tested on: OVCAR-4
# [15] = tested on: KM12
# [16] = tested on: HS 578T
# [17] = tested on: T-47D; type: cell-based; conditions: Breast Cancer
# [18] = tested on: HCC-2998
# [19] = tested on: SNB-19; type: cell-based; conditions: SNB-19, CNS Cancer
# [20] = tested on: UO-31
# [21] = tested on: SK-MEL-28
# [22] = tested on: NSCLC (Non-small Cell Lung Cancer) cell lines; conditions: for GI50 / CC50: Homo sapiens
# [23] = tested on: NCI/ADR-RES
# [24] = tested on: SN12C
# [25] = tested on: SK-MEL-5
# [26] = read-out: GI50, values range inside panel
# [27] = read-out: LC50, values range inside panel
# [28] = Homo sapiens, read-out: LC50 (the source's name)
compound,measurement,setting,value
"O=C(COc1ccc(Cl)cc1/C=c1\sc2ncnn2c1=O)Nc1ccc(Cl)cc1 [Compound 2h, (Z)-2-(4-Chloro-2-((6-oxothiazolo[3,2-b][1,2,4]triazol-5(6H)-ylidene)methyl)phenoxy)-N-(4-chlorophenyl)acetamide]",GI50,"[1]; read-out: GI50, panel MG_MID",1.92 µM
same,GI50,[1]; [26],1.35 to 2.69 µM
same,CC50,"[1]; read-out: LC50, panel MG_MID",26.8 µM
same,CC50,[1]; [27],7.58 to 49 µM
same,"TGI, panel MG_MID",[1]; Leukemia subpanel,6.85 µM
same,"TGI, values range inside panel",[1]; Leukemia subpanel,3.16 to 14.45 µM
same,"TGI, panel MG_MID",[2]; CNS Cancer subpanel,10.76 µM
same,"TGI, values range inside panel",[2]; CNS Cancer subpanel,4.46 to 15.48 µM
same,GI50,"[2]; read-out: GI50, panel MG_MID",2.87 µM
same,GI50,[2]; [26],1.77 to 4.07 µM
same,CC50,"[2]; read-out: LC50, panel MG_MID",38.6 µM
same,CC50,[2]; [27],12.6 to 87.1 µM
same,GI50,[3]; Homo sapiens,1.35 µM
same,CC50,"[3]; Homo sapiens, read-out: LC50",7.58 µM
same,TGI,[3]; Leukemia,3.16 µM
same,TGI,"[4]; HOP-62, NSCLC",16.59 µM
same,GI50,"[4]; Homo sapiens, HOP-62",4.67 µM
same,CC50,"[4]; Homo sapiens, HOP-62, read-out: LC50",42.6 µM
same,TGI,"[5]; A498, Renal Cancer",22.38 µM
same,GI50,"[5]; Homo sapiens, A498",10.5 µM
same,CC50,"[5]; Homo sapiens, A498, read-out: LC50",46.8 µM
same,"TGI, panel MG_MID",[6]; Breast Cancer subpanel,15.61 µM
same,"TGI, values range inside panel",[6]; Breast Cancer subpanel,4.07 to 41.68 µM
same,GI50,"[6]; Homo sapiens, read-out: GI50, panel MG_MID",4.48 µM
same,CC50,"[6]; Homo sapiens, read-out: LC50, panel MG_MID",46.1 µM
same,GI50,"[6]; read-out: GI50, values range inside panel, Breast Cancer subpanel",0.01 to 15.5 µM
same,TGI,[7],19.95 µM
same,GI50,[7]; Homo sapiens,7.58 µM
same,CC50,[7]; [28],44.7 µM
same,TGI,"[8]; HCT-116, Colon cancer",20.89 µM
same,GI50,"[8]; Homo sapiens, HCT-116",7.58 µM
same,CC50,"[8]; Homo sapiens, HCT-116, read-out: LC50",45.7 µM
same,GI50,"[9]; Homo sapiens, K562",2.51 µM
same,CC50,"[9]; Homo sapiens, K562, read-out: LC50",49 µM
same,TGI,"[9]; K-562, Leukemia",14.45 µM
same,"TGI, panel MG_MID",[10]; Colon cancer subpanel,17.39 µM
same,"TGI, values range inside panel",[10]; Colon cancer subpanel,10.96 to 21.37 µM
same,GI50,"[10]; read-out: GI50, panel MG_MID",6.13 µM
same,GI50,[10]; [26],2.45 to 9.33 µM
same,CC50,"[10]; read-out: LC50, panel MG_MID",41.4 µM
same,CC50,[10]; [27],33.1 to 45.7 µM
same,GI50,"[11]; Homo sapiens, NCI-H522",3.16 µM
same,CC50,"[11]; Homo sapiens, NCI-H522, read-out: LC50",38 µM
same,TGI,"[11]; NCI-H522, NSCLC",9.99 µM
same,GI50,"[12]; Homo sapiens, MDA-MB-435",2.95 µM
same,CC50,"[12]; Homo sapiens, MDA-MB-435, read-out: LC50",28.8 µM
same,TGI,"[12]; MDA-MB-435, Breast Cancer",12.58 µM
same,IC50,[13],29 µM
same,GI50,"[14]; Homo sapiens, OVCAR-4",8.91 µM
same,CC50,"[14]; Homo sapiens, OVCAR-4, read-out: LC50",97.7 µM
same,TGI,"[14]; OVCAR-4, Ovarian Cancer",30.90 µM
same,GI50,"[15]; Homo sapiens, KM12",2.45 µM
same,CC50,"[15]; Homo sapiens, KM12, read-out: LC50",33.1 µM
same,TGI,"[15]; KM12, Colon cancer",10.96 µM
same,TGI,"[16]; HS 578T, Breast Cancer",5.24 µM
same,GI50,"[16]; Homo sapiens, Hs-578T",2.04 µM
same,CC50,"[16]; Homo sapiens, Hs-578T, read-out: LC50",33.9 µM
same,TGI,[17],25.70 µM
same,GI50,"[17]; Homo sapiens, T47D",7.76 µM
same,CC50,"[17]; Homo sapiens, T47D, read-out: LC50 (the source's name)",28.8 µM
same,TGI,"[18]; HCC-2998, Colon cancer",18.62 µM
same,GI50,"[18]; Homo sapiens, HCC 2998",7.07 µM
same,CC50,"[18]; Homo sapiens, HCC 2998, read-out: LC50",43.6 µM
same,GI50,[19]; Homo sapiens,3.8 µM
same,CC50,[19]; [28],38 µM
same,TGI,[19],14.45 µM
same,GI50,"[20]; Homo sapiens, UO-31",2.29 µM
same,CC50,"[20]; Homo sapiens, UO-31, read-out: LC50",44.7 µM
same,TGI,"[20]; UO-31, Renal Cancer",17.37 µM
same,GI50,"[21]; Homo sapiens, SK-MEL-28",6.16 µM
same,CC50,"[21]; Homo sapiens, SK-MEL-28, read-out: LC50",51.3 µM
same,TGI,"[21]; SK-MEL-28, Melanoma",20.41 µM
same,GI50,"[22]; read-out: GI50, panel MG_MID",6.98 µM
same,GI50,[22]; [26],2.29 to 15.5 µM
same,CC50,"[22]; read-out: LC50, panel MG_MID",44 µM
same,CC50,[22]; [27],31.6 to 60.2 µM
same,"TGI, panel MG_MID",[22]; NSCLC subpanel,18.22 µM
same,"TGI, values range inside panel",[22]; NSCLC subpanel,9.99 to 30.90 µM
same,TGI,[23]; Breast Cancer,41.68 µM
same,GI50,[23]; Homo sapiens,15.5 µM
same,CC50,"[23]; Homo sapiens, read-out: LC50",> 100 µM
same,GI50,[24]; Homo sapiens,1.62 µM
same,CC50,"[24]; Homo sapiens, read-out: LC50",41.7 µM
same,TGI,[24]; Renal Cancer,12.88 µM
same,GI50,"[25]; Homo sapiens, SK-MEL-5",3.23 µM
same,CC50,"[25]; Homo sapiens, SK-MEL-5, read-out: LC50",38 µM
same,TGI,"[25]; SK-MEL-5, Melanoma",14.79 µM
